This note sets out measurements from paper PMC11509018, “Evaluation of the Role of Tanshinone I in an In Vitro System of Charcot-Marie-Tooth Disease Type 2N” (International Journal of Molecular Sciences, 2024).

What is called Kd is the constant that tells how readily two partners part at equilibrium. Lower therefore signals tighter binding.

The target of assay [1] is T1, AlaRS^R329H (Homo sapiens, UniProt P49588, R329H).
T1 construct: made in house; host or cells: E. coli BL21 (DE3), pET-21a
T1 sequence (P49588 1-968 R329H): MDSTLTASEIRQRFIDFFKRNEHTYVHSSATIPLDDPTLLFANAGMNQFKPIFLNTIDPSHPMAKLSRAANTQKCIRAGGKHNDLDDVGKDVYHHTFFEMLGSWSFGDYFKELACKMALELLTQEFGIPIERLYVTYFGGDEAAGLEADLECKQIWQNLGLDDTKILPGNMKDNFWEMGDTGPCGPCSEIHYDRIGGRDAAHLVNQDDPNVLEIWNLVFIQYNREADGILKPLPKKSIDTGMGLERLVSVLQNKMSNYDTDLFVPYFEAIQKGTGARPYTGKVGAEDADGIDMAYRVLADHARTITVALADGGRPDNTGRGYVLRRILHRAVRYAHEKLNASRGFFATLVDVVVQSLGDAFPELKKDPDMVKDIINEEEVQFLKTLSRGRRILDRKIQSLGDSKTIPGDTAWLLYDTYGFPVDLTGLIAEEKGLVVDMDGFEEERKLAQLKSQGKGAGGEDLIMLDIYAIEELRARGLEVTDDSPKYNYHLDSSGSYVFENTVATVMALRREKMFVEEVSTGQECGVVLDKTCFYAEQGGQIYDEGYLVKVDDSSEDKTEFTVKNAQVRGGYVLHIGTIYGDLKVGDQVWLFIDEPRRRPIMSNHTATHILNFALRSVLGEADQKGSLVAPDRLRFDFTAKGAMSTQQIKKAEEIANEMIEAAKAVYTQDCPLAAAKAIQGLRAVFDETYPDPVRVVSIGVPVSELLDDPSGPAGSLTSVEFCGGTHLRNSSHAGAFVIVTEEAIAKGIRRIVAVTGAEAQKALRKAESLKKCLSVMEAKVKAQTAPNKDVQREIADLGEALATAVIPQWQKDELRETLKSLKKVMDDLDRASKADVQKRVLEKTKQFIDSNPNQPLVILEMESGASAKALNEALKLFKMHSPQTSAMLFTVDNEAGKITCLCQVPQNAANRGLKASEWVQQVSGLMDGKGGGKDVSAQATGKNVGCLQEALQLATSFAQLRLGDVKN
Briefly: Biolayer interferometry (BLI). Type of assay: binding. Particulars: immobilized AlaRS^R329H, 40, 20, 10, 5, 2.5 μM, mean ± SD, triplicate. The source says:
To quantitatively analyze the binding affinity between the small molecules and the CMT mutant proteins, we performed BLI analysis on the selected candidates. BLI offers direct measurements of drug–protein binding kinetics, including key parameters such as the equilibrium dissociation constant (KD), association rate (Kon), and dissociation rate (Koff). This analysis provided key insights into the binding affinities of the four small molecules with the mutant protein AlaRS^R329H. […] To further quantify the binding of small molecules to mutant proteins, binding experiments with AlaRS^R329H proteins and small molecules were conducted using an Octet R8 system (ForteBio, Fremont, CA, USA). Purified His-tagged AlaRS^R329H proteins (500 μg/mL) were captured on Ni-NTA biosensors (ForteBio, Fremont, CA, USA), achieving a saturation response of 4–5 nm after 300 s. The biosensors were then transferred to Octet buffer (PBS with 0.01% Tween 20) for 180 s to remove loosely bound, nonspecific proteins and to establish a stable baseline. Following this, the sensors were immersed in diluted Tanshinone I (2.5–100 μM in assay buffer) for 120 s to record the association signal, and then transferred back into Octet buffer to monitor the dissociation signal for 120 s. Reference wells containing buffer instead of Tanshinone I were included to correct for baseline shifts. Additionally, a parallel set of Ni-NTA sensors in buffer served as negative reference controls to account for nonspecific binding of the compounds to the biosensor surface. The data were processed using a double reference subtraction protocol to eliminate nonspecific signals, background noise, and signal drifts caused by biosensor variability. All assays were performed in 96-well black plates with a total volume of 200 μL per well at 30 °C. Data analysis, including correction and curve fitting, was carried out using Octet® Analysis Studio 12.2.2.26. The experiment was repeated three times.
In general terms: In BLI a coated tip is dipped into the sample, and binding shifts an interference pattern.

The target of assay [2] is T1, AlaRS^R329H. Briefly: Proteolytic digestion assay (trypsin, SDS-PAGE). Particulars: 3 h. As to the method:
To delve deeper into the impact of selected small molecules on the structural conformation of AlaRS^R329H proteins, a series of proteolysis experiments were conducted. The small molecules were incubated with AlaRS^R329H proteins at room temperature for three hours, followed by SDS-PAGE analysis to evaluate their effects on the distribution of the digestion fragments. […] The AlaRS^R329H proteins (in the presence and absence of Atazanavir sulfate, Tanshinone I, Hederacolchiside A1, and Hexylresorcinol) were incubated with trypsin at different concentrations for 3 h before the reactions were quenched, and the products were separated by SDS-PAGE.

SMILES strings stand for the structures. “Also recorded” adds a separate entry of the source.

In the case of `Cc1coc2c1C(=O)C(=O)c1c-2ccc2c(C)cccc12` [Tanshinone I], binding on AlaRS^R329H [1] was characterised by a dissociation constant (Kd) of 5.1 ± 1.9 µM. In addition, the “Effect on distribution of digestion fragments / conformation” value on AlaRS^R329H [2] is given as “markedly altered the digestion fragment pattern; also recorded: significant change in the distribution of the bands”.
